Measured values: article PMC8296573, “Synthesis and Biological Evaluation of Fingolimod Derivatives as Antibacterial Agents” (ACS Omega, 2021)
In brackets after ≈: the same amount, converted by molar mass. Where two headings read alike, the source gives them in different places.

How the values were obtained:
A. baumannii NCTC 13423 = assay: Antibacterial activity, pre-exposure; type: cell-based, Acinetobacter baumannii; settings: for Average inhibition %, biofilms viability / Average inhibition %, planktonic cells viability / inhibition at 10 µM / inhibition at 15 µM / inhibition at 25 µM / inhibition at 50 µM: A. baumannii NCTC 13423, pre-exposure, ± SD; for inhibition at 10 µM / inhibition at 15 µM / inhibition at 25 µM / inhibition at 50 µM: Acinetobacter baumannii, NCTC13423
Procedure, shortened: (§1)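 For planktonic resazurin, 20 μM final was used: 3–10 min at RT for S. aureus and A. baumannii, 20 min at 37 °C for P. aeruginosa. Cultures had been co-incubated with compound for 18 h at 37 °C, 220 rpm. Biofilms were then assessed by resazurin and crystal violet.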

P. aeruginosa ATCC 9027 = assay: Antibacterial activity, pre-exposure; type: cell-based, Pseudomonas aeruginosa; settings: for Average inhibition %, biofilms viability / Average inhibition %, planktonic cells viability / inhibition at 50 µM / inhibition at 100 µM / inhibition at 150 µM / inhibition at 200 µM: P. aeruginosa ATCC 9027, pre-exposure, ± SD; for inhibition at 50 µM / inhibition at 100 µM / inhibition at 150 µM / inhibition at 200 µM: Pseudomonas aeruginosa, ATCC9027
Procedure, shortened: as §1

S. aureus ATCC 25923 [1] = assay: Antibacterial activity, post-exposure on preformed 18-h-old biofilms; type: cell-based, Staphylococcus aureus; settings: ± SD; for inhibition at 25 µM / inhibition at 50 µM / inhibition at 100 µM / inhibition at 200 µM: Staphylococcus aureus; for inhibition at 25 µM: ATCC25923, 25 µM; for inhibition at 50 µM: ATCC25923, 50 µM; for inhibition at 100 µM: ATCC25923, 100 µM; for inhibition at 200 µM: ATCC25923, 200 µM
Procedure, shortened: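 Compounds were applied to preformed 18-h biofilms after medium change and left 24 h. Read-outs: planktonic OD plus resazurin fluorescence (20 μM), biofilm metabolic activity by resazurin 30 min at 37 °C, then biomass by crystal violet absorbance at 595 nm after ethanol fixation.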

S. aureus ATCC 25923 [2] = assay: Antibacterial activity, pre-exposure (planktonic cells and biofilm formation); type: cell-based, Staphylococcus aureus; settings: for MIC / inhibition at 5 µM / inhibition at 10 µM / inhibition at 15 µM / inhibition at 25 µM: Staphylococcus aureus, ATCC25923; for inhibition at 5 µM / inhibition at 10 µM / inhibition at 15 µM / inhibition at 25 µM / Average inhibition %, biofilms viability / Average inhibition %, planktonic cells viability: pre-exposure, ± SD
Procedure, shortened: as §1

[3] = 10 µM, read-out: Average inhibition %, biofilms biomass
[4] = 10 µM, read-out: Average inhibition %, planktonic cells turbidity
[5] = 15 µM, read-out: Average inhibition %, biofilms biomass
[6] = 15 µM, read-out: Average inhibition %, planktonic cells turbidity
[7] = 25 µM, read-out: Average inhibition %, biofilms biomass
[8] = 25 µM, read-out: Average inhibition %, planktonic cells turbidity
[9] = 50 µM, read-out: Average inhibition %, biofilms biomass
[10] = 50 µM, read-out: Average inhibition %, planktonic cells turbidity
[11] = read-out: Average inhibition %, biofilms biomass
[12] = read-out: Average inhibition %, planktonic cells turbidity

CCCCCCCCCCc1ccc(CCC(N)(CO)CO)cc1 [Compound 11, 2-Amino-2-(4-decylphenethyl)propane-1,3-diol]
Average inhibition %, biofilms viability (A. baumannii NCTC 13423; 10 µM): 0 ± 0% | Average inhibition %, planktonic cells viability (A. baumannii NCTC 13423; 10 µM): 11.8 ± 6% | Average inhibition %, biofilms viability (A. baumannii NCTC 13423; 15 µM): 0.8 ± 1.4% | Average inhibition %, planktonic cells viability (A. baumannii NCTC 13423; 15 µM): 13.2 ± 6.7% | Average inhibition %, biofilms viability (A. baumannii NCTC 13423; 25 µM): 3.6 ± 5.6% | Average inhibition %, planktonic cells viability (A. baumannii NCTC 13423; 25 µM): 10.3 ± 9% | Average inhibition %, biofilms viability (A. baumannii NCTC 13423; 50 µM): 21.4 ± 1.1% | Average inhibition %, planktonic cells viability (A. baumannii NCTC 13423; 50 µM): 0.1 ± 0.1% | inhibition at 10 µM (A. baumannii NCTC 13423; [3]): 5.1 ± 8.9% | inhibition at 10 µM (A. baumannii NCTC 13423; [4]): 0% | inhibition at 15 µM (A. baumannii NCTC 13423; [5]): 0% | inhibition at 15 µM (A. baumannii NCTC 13423; [6]): 0% | inhibition at 25 µM (A. baumannii NCTC 13423; [7]): 5.1 ± 4.6% | inhibition at 25 µM (A. baumannii NCTC 13423; [8]): 0% | inhibition at 50 µM (A. baumannii NCTC 13423; [9]): 15.9 ± 13.8% | inhibition at 50 µM (A. baumannii NCTC 13423; [10]): 0% | MIC A. baumannii NCTC 13423 (A. baumannii NCTC 13423; pre-exposure, Inactive = no activity up to 50 μM, > = some inhibition but no MIC reached): Inactive ^d | Average inhibition %, biofilms viability (P. aeruginosa ATCC 9027; 50 µM): 0 ± 0% | Average inhibition %, planktonic cells viability (P. aeruginosa ATCC 9027; 50 µM): 26.2 ± 4.1% | Average inhibition %, biofilms viability (P. aeruginosa ATCC 9027; 100 µM): 0 ± 0% | Average inhibition %, planktonic cells viability (P. aeruginosa ATCC 9027; 100 µM): 6.4 ± 11.1% | Average inhibition %, biofilms viability (P. aeruginosa ATCC 9027; 150 µM): 0 ± 0% | Average inhibition %, planktonic cells viability (P. aeruginosa ATCC 9027; 150 µM): 10.3 ± 9.3% | Average inhibition %, biofilms viability (P. aeruginosa ATCC 9027; 200 µM): 0 ± 0% | Average inhibition %, planktonic cells viability (P. aeruginosa ATCC 9027; 200 µM): 1.2 ± 2% | inhibition at 50 µM (P. aeruginosa ATCC 9027; [9]): 8.3 ± 5.9% | inhibition at 50 µM (P. aeruginosa ATCC 9027; [10]): 22.2 ± 20.1% | inhibition at 100 µM (P. aeruginosa ATCC 9027; 100 µM, read-out: Average inhibition %, biofilms biomass): 13 ± 13.3% | inhibition at 100 µM (P. aeruginosa ATCC 9027; 100 µM, read-out: Average inhibition %, planktonic cells turbidity): 20.4 ± 17.1% | inhibition at 150 µM (P. aeruginosa ATCC 9027; 150 µM, read-out: Average inhibition %, biofilms biomass): 12.1 ± 11.1% | inhibition at 150 µM (P. aeruginosa ATCC 9027; 150 µM, read-out: Average inhibition %, planktonic cells turbidity): 7.6 ± 5.1% | inhibition at 200 µM (P. aeruginosa ATCC 9027; 200 µM, read-out: Average inhibition %, biofilms biomass): 3.1 ± 4.2% | inhibition at 200 µM (P. aeruginosa ATCC 9027; 200 µM, read-out: Average inhibition %, planktonic cells turbidity): 13.4 ± 11.7% | MIC P. aeruginosa ATCC 9027 (P. aeruginosa ATCC 9027; pre-exposure, Inactive = no activity up to 200 μM, > = some inhibition but no MIC reached): Inactive | Average inhibition %, biofilms viability (S. aureus ATCC 25923 [1]; 25 µM): 10.2 ± 8.5% | Average inhibition %, planktonic cells viability (S. aureus ATCC 25923 [1]; 25 µM): 0 ± 0% | Average inhibition %, biofilms viability (S. aureus ATCC 25923 [1]; 50 µM): 17.5 ± 9% | Average inhibition %, planktonic cells viability (S. aureus ATCC 25923 [1]; 50 µM): 0 ± 0% | Average inhibition %, biofilms viability (S. aureus ATCC 25923 [1]; 100 µM): 24.8 ± 10.2% | Average inhibition %, planktonic cells viability (S. aureus ATCC 25923 [1]; 100 µM): 6 ± 10.4% | Average inhibition %, biofilms viability (S. aureus ATCC 25923 [1]; 200 µM): 25.8 ± 8.3% | Average inhibition %, planktonic cells viability (S. aureus ATCC 25923 [1]; 200 µM): 30.5 ± 9.5% | inhibition at 25 µM (S. aureus ATCC 25923 [1]; [11]): 32.6 ± 5.1% | inhibition at 25 µM (S. aureus ATCC 25923 [1]; [12]): 8.9 ± 8.2% | inhibition at 50 µM (S. aureus ATCC 25923 [1]; [11]): 35.4 ± 2.7% | inhibition at 50 µM (S. aureus ATCC 25923 [1]; [12]): 14 ± 4.2% | inhibition at 100 µM (S. aureus ATCC 25923 [1]; [11]): 48.9 ± 4.7% | inhibition at 100 µM (S. aureus ATCC 25923 [1]; [12]): 16.2 ± 8.6% | inhibition at 200 µM (S. aureus ATCC 25923 [1]; [11]): 47.6 ± 7.1% | inhibition at 200 µM (S. aureus ATCC 25923 [1]; [12]): 22.2 ± 12.7% | Initial screening result (active = at least 60% inhibition of planktonic cells and biofilm formation) (S. aureus ATCC 25923 [2]; 50 μM, S. aureus): active | MIC (S. aureus ATCC 25923 [2]; lowest concentration with no visible growth (>90% inhibition of turbidity and viability of planktonic cells), 18 h, read-out: MIC S. aureus ATCC 25923): 10 to 15 µM (≈ 3.36 to 5.03 µg/mL) | inhibition at 5 µM (S. aureus ATCC 25923 [2]; 5 µM, read-out: Average inhibition %, biofilms biomass): 40.1 ± 36.6% | inhibition at 5 µM (S. aureus ATCC 25923 [2]; 5 µM, read-out: Average inhibition %, planktonic cells turbidity): 12.5 ± 12.4% | inhibition at 10 µM (S. aureus ATCC 25923 [2]; [3]): 75.6 ± 20.8% | inhibition at 10 µM (S. aureus ATCC 25923 [2]; [4]): 70.4 ± 40% | inhibition at 15 µM (S. aureus ATCC 25923 [2]; [5]): 87.1 ± 9.9% | inhibition at 15 µM (S. aureus ATCC 25923 [2]; [6]): 97.5 ± 1.9% | inhibition at 25 µM (S. aureus ATCC 25923 [2]; [7]): 89 ± 0.7% | inhibition at 25 µM (S. aureus ATCC 25923 [2]; [8]): 97.9 ± 1.2% | MIC (S. aureus ATCC 25923 [2]; read-out: MIC (S. aureus)): 10 to 15 µM (≈ 3.36 to 5.03 µg/mL) | Average inhibition %, biofilms viability (S. aureus ATCC 25923 [2]; 5 µM): 41.8 ± 9.7% | Average inhibition %, planktonic cells viability (S. aureus ATCC 25923 [2]; 5 µM): 17 ± 23.3% | Average inhibition %, biofilms viability (S. aureus ATCC 25923 [2]; 10 µM): 72.2 ± 23.8% | Average inhibition %, planktonic cells viability (S. aureus ATCC 25923 [2]; 10 µM): 73.3 ± 34.2% | Average inhibition %, biofilms viability (S. aureus ATCC 25923 [2]; 15 µM): 84.9 ± 24.9% | Average inhibition %, planktonic cells viability (S. aureus ATCC 25923 [2]; 15 µM): 98.5 ± 1.7% | Average inhibition %, biofilms viability (S. aureus ATCC 25923 [2]; 25 µM): 93.8 ± 10.1% | Average inhibition %, planktonic cells viability (S. aureus ATCC 25923 [2]; 25 µM): 99.2 ± 1.3%
